Assay results published in patent publication US7799353B2, “Pharmaceutical mixture for hepatitis treatment and its preparation method” (Industrial Technology Research Institute, priority 2003, dated 2010).

Experiments:
[1] = test system: d-galactosamine-induced acute hepatitis; test: d-galactosamine-induced acute hepatitis in rats, serum GOT/GPT (Embodiment 6, silymarin and guanine positive controls); format: in vivo
Experimental: (§1) Rats are randomly divided, with six rats in each group. The animals fasted for 24 hr before the experiment. In the study, normal and d-galactosamine (Gal) groups are orally given with distilled water, testing groups are orally given with 1 g/kg of the test articles (JM, BMEC-1 or BMEC-101 from different processes) dissolving in distilled water, and rats in positive control group are orally administrated with silymarin (200 mg/kg) and guanine (300 mg/kg). One hour later, each group is i.p. with d-galactosamine (400 mg/kg), and the normal group is i.p. with saline. Four and eight hours after d-galactosamine injection, the same dosages are administrated again. Twenty-four hours after d-galactosamine injection, the animals are anesthetized with ether, and the blood is collected from the carotid artery. The serum is separated and stands still at room temperature for 1 hr, and centrifuged (Backman centrifuge, GS-6R, 3000 rpm) for 10 mins. The activities of rat serum GOT and GPT are measured.

[2] = test system: d-galactosamine-induced liver damage; test: Histopathological sections of liver of d-galactosamine-induced acute hepatitis animals; format: in vivo, rats; settings: 300 mg/kg
Experimental: as §1
After blood is collected, the liver of the acute hepatitis animal induced by d-galactosamine is separated, and liver tissue around 0.5 cm^3 in each folium is taken out. Those tissues are fixed in 10% neutral formalin for 1 to 2 weeks, then dehydrated and paraffin embedded by the dehydration and wax-exudation device, and cut into 4 to 5 μm liver slices by rotary microtome. The slices are stained with Haematoxylin and Eosin, and the pathological patterns are observed under an optical microscope.

[3] = test system: d-galactosamine-induced acute hepatitis; test: d-galactosamine-induced acute hepatitis in rats, serum GOT/GPT (Embodiment 5, guanine positive control); format: in vivo; settings: for reduction of sGOT value / reduction of sGPT value: vs d-galactosamine group
Experimental: Male rats are randomly divided, with five rats in the individual group and 200±20 g of each. In the study, normal and d-galactosamine (Gal) groups are orally given with distilled water, testing groups are orally given with test articles (JM or BMEC-1 from different processes) dissolving in distilled water, positive control group is orally given with guanine (300 mg/kg), and each administration dosage is 10 ml/kg.
Half-hour later, each group is i.p. with d-galactosamine (500 mg/kg) except the normal group. Four and eight hours after d-galactosamine injection, the same dosages are administrated again. Twenty-four hours after d-galactosamine injection, the animals are sacrificed for collecting the blood, and then the serum GOT (Glutamyl Oxaloacetic Transaminase) and GPT (Glutamyl Pyrubic Transaminase) activities are measured by using HITACHI auto-analyzing system (model 7050) with UV method.

[4] = Table 5, oral 300 × 3 mg/kg, Gal 400 mg/kg i.p., mean ± SEM, n = 6
[5] = Table 5 experiment, oral 300×3 mg/kg, vs d-galactosamine group
[6] = Table 2, oral 300 × 3 mg/kg, Gal 500 mg/kg i.p., serum 24 h after Gal, mean ± SEM, n = 5
[7] = Table 2 experiment, positive control, oral 300 × 3 mg/kg
[8] = Table 3, oral 300 × 3 mg/kg, Gal 500 mg/kg i.p., mean ± SEM, n = 5
[9] = Table 3 experiment, oral 300×3 mg/kg
[10] = Table 4 Batch 1, oral 300 × 3 mg/kg, Gal 500 mg/kg i.p., mean ± SEM, n = 5
[11] = Table 4 Batch 1, oral 300×3 mg/kg
[12] = Table 4 Batch 2, oral 300 × 3 mg/kg, Gal 500 mg/kg i.p., mean ± SEM, n = 5
[13] = Table 4 Batch 2, oral 300×3 mg/kg

Nc1nc2nc[nH]c2c(=O)[nH]1 [guanine]
sGOT [1, 4]: 160.7 ± 33.5 U/L
sGPT [1, 4]: 55.1 ± 19.2 U/L
reduction of sGOT value [1, 5]: 70%
reduction of sGPT value [1, 5]: 79%
Fibrosis ([2]; liver fibrosis grade): 1
Balloon degeneration ([2]; liver histopathology grade): 0
Bile duct proliferation ([2]; liver histopathology grade): 1
Fatty change ([2]; liver histopathology grade): 1
Inflammation ([2]; liver histopathology grade): 1
Mitosis ([2]; liver histopathology grade): 0
Necrosis ([2]; liver histopathology grade): 0
sGOT [3, 6]: 980.0 ± 92.5 U/L
sGPT [3, 6]: 589.6 ± 54.6 U/L
reduction of sGOT value [3, 7]: 24%
reduction of sGPT value [3, 7]: 32%
sGOT [3, 8]: 954.8 ± 122.1 U/L
sGPT [3, 8]: 514.4 ± 78.2 U/L
reduction of sGOT value [3, 9]: 45%
reduction of sGPT value [3, 9]: 59%
sGOT [3, 10]: 1055.6 ± 150.1 U/L
sGPT [3, 10]: 699.2 ± 103.6 U/L
reduction of sGOT value [3, 11]: 49%
reduction of sGPT value [3, 11]: 41%
GOT [3, 12]: 1080.0 ± 181.7 U/L
GPT [3, 12]: 584.0 ± 114.9 U/L
reduction of sGOT value [3, 13]: 42%
reduction of sGPT value [3, 13]: 49%
